The values below come from ChEMBL document CHEMBL1201862, “PubChem BioAssay data set” (2004).

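Method: 48-hour compound exposure of cells in 96-well plates, five concentrations, linear interpolation of endpoints. GI50 marks 50% less growth.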 Calls of active or inactive are those of the source. Cut-off read from the data, not from the text of the source: active = GI50 up to about 1.1 µM and inactive = higher. Bounds are passed on as bounds.

Test systems include MDA-MB-231; NCI-H226; OVCAR-5; SK-MEL-2; HT-29; HOP-62; PC-3; Hs-578T; OVCAR-4; K562; UACC-257; OVCAR-8; IGROV-1; SNB-19; TK-10; HCT-15; OVCAR-3; NCI-H23.
What all share (experiment): DTP human tumour cell line panel, 48 h

For `CN(C)/N=N/c1nc2c(c(=O)n(C)c(=O)n2C)n1C`, the GI50 in the assay on MDA-MB-231, in the assay with NCI-H226, with OVCAR-5, with SK-MEL-2, in the assay with HT-29 and in the assay with HOP-62 was > 100 µM (inactive) throughout. For the same compound, the GI50 with PC-3, with Hs-578T, in the assay on OVCAR-4, in the assay on K562, with UACC-257 and in the assay with OVCAR-8 was > 100 µM (inactive) in each case. The GI50 in the assay with IGROV-1 is > 100 µM (inactive); with SNB-19 it was > 100 µM (inactive); in the assay on TK-10, > 100 µM (inactive); in the assay on HCT-15, over 100 µM; in the assay on OVCAR-3 it was > 100 µM (inactive).
In the case of `CCOC(=O)NC(=S)NC(C)c1ccccc1` (stereo unspecified), the GI50 in the assay with MDA-MB-231, in the assay on NCI-H226, in the assay on OVCAR-5, in the assay on SK-MEL-2, in the assay with HT-29 and with HOP-62 was > 100 µM (inactive) in each case. For the same compound, the GI50 in the assay with PC-3, in the assay with NCI-H23, with Hs-578T, in the assay on OVCAR-4, with K562 and in the assay with UACC-257 was > 100 µM (inactive) each time. Also, the GI50 was > 100 µM (inactive) in the assay with OVCAR-8; > 100 µM (inactive) with IGROV-1; > 100 µM (inactive) with SNB-19; > 100 µM (inactive) with TK-10; over 100 µM with HCT-15; > 100 µM (inactive) with OVCAR-3.
Consider `O=C(Cn1c2ccc(Br)cc2c2nc3ccccc3nc21)Nc1ccccc1`, for which the GI50 in the assay with MDA-MB-231 was 13.3 µM (inactive); in the assay on NCI-H226 it was 32.6 µM (inactive); with OVCAR-5 it was 47 µM (inactive); in the assay with SK-MEL-2, 55 µM (inactive); in the assay on HT-29 it was 24.8 µM (inactive); in the assay with HOP-62, 27.9 µM (inactive). The GI50 is 18 µM (inactive) in the assay on PC-3; 28 µM (inactive) in the assay with NCI-H23; 26.7 µM (inactive) with Hs-578T; 20.9 µM (inactive) in the assay on OVCAR-4; 38.8 µM (inactive) in the assay on K562; 78.2 µM (inactive) in the assay with UACC-257. For the same compound, the GI50 is 15.1 µM (inactive) in the assay with OVCAR-8; 15.3 µM (inactive) in the assay on IGROV-1; 39.7 µM (inactive) in the assay on SNB-19; 27.7 µM (inactive) with TK-10; 25.1 µM in the assay with HCT-15; > 100 µM (inactive) with OVCAR-3.
Take `Oc1ccc2ccccc2c1/N=N/c1ccc(Br)cc1`: the GI50 in the assay on MDA-MB-231 was > 100 µM (inactive); with NCI-H226, 66.7 µM (inactive); in the assay on OVCAR-5, 63 µM (inactive); in the assay on SK-MEL-2, > 100 µM (inactive); in the assay on HT-29, > 100 µM (inactive); in the assay with HOP-62, 21 µM (inactive). In addition, the GI50 in the assay on PC-3 was > 100 µM (inactive); with NCI-H23, > 100 µM (inactive); with Hs-578T, 24.7 µM (inactive); in the assay with OVCAR-4 it was 27.8 µM (inactive); in the assay on K562 it was > 100 µM (inactive); in the assay with UACC-257, > 100 µM (inactive). Besides, the GI50 is > 100 µM (inactive) with OVCAR-8; 36.1 µM (inactive) in the assay with IGROV-1; > 100 µM (inactive) in the assay on SNB-19; 59.6 µM (inactive) in the assay with TK-10; over 100 µM with HCT-15; 86.9 µM (inactive) in the assay with OVCAR-3.

Usually GI50 stands for the concentration giving 50% growth inhibition.
